Measurements published in patent US11873295B2, “Allosteric chromenone inhibitors of phosphoinositide 3-kinase (PI3K) for the treatment of disease” (Petra Pharma Corporation, priority 2021, dated 2024).

Tests used:
[1] = target: T1, human full length PIK3KA Wild-type (p110α/p85α complex) (Homo sapiens, UniProt P42336); assay: PI3K-alpha kinase (PIK3CA) biochemical activity, wild-type, ADP-Glo; settings: PI3K-α (PIK3CA) biochemical
T1 construct: Recombinant, catalytically active human full length PIK3KA Wild-type and H1047R mutant were purchased as 1:1 complex; 6xHis (N); purchased EMD Millipore Sigma 14-602M
Text: (§1) PI3K-Alpha Kinase (PIK3CA) Activity, Wild-Type and H1047R Mutant and Determining IC50 Values for Inhibitors
(§2) Recombinant, catalytically active human full length PIK3KA Wild-type and H1047R mutant were purchased as 1:1 complex of N-terminal 6× his tagged p110α (catalytic) and untagged p85α (regulatory subunit) from EMD Millipore Sigma (cat. no. 14-602M and 14-792M, respectively). PIP2diC8 (Avanti Polar Lipids Inc., cat. no. 850185) or Soy PI (Avanti Polar Lipids Inc., cat. No. 840044P) was used as lipid substrate. PIP2diC8 or PI lyophilized powder was dissolved in milliQ water to a concentration of 1 mM just before use. 10 mM stock compounds in DMSO were serially diluted 1:3 to generate a 10-point curve and plated using an acoustic liquid handler system (Echo 550 series instrument, Labcyte). A 10× intermediate compound plate (200 uM starting compound concentration and 10% DMSO) was prepared before starting the reaction. A typical reaction mixture (50 uL) comprised 40 mM HEPES buffer, pH 7.4, 25 mM MgCl2, 0.01% v/v triton-X-100, 1% v/v DMSO, 20 mM NaCl, 1-5 nM WT or H1047R PI3K protein, 20 uM ATP, and 50 uM PIP2diC8 or Soy PI. 1% DMSO buffer alone without test compound was employed as MAX control (full activity in the absence of any inhibitor), and no enzyme control was used to determine the level of background Adenosine 5′-diphosphate (ADP) (MIN control). First, Wild-type (WT) and H1047R mutant protein in kinase buffer with all components except ATP were incubated with or without compound at 27° C. for 1 h. After the pre-incubation, the reaction was initiated by the addition of 20 uL of 50 uM ATP (20 uM final concentration). The reaction was allowed to proceed until about 10% conversion of ATP (2 uM ADP) at 27° C. After that time, 5 uL of reaction was mixed with 5 uL of ADP-Kinase Glo Reagent (ADP-Glo Kinase assay kit, Promega cat. no. V9102) supplemented with MgCl2 10 mM to stop the reaction and deplete the remaining ATP for 40 min at room temperature. Then, 10 uL of Kinase Detection Reagent (ADP-Glo Kinase assay kit, Promega cat. no. V9102) was added to simultaneously convert ADP to ATP and allow the newly synthesized ATP to be measured using a luciferase/luciferin reaction. After 30 min at room temperature the light generated was measured using a luminometer (EnVision plate reader, Perkin Elmer). Process data through Genedata-Screener tool. Relative IC50 values are determined using luminescence units by calculating percent inhibition with respect to on-plate “MIN” and “MAX” controls. Data was analyzed using a 4-parameter nonlinear logistic equation (four-parameter logistic concentration-response curve): Y=bot+[(top−bot)/1+(x/IC50)slope] where Y=% inhibition, X=concentration yielding y % inhibition, Bottom=minimum value of y attained by curve, Top=maximum value of y attained by curve and Slope=steepness of curve at IC50. % Inh=[(median Max−x/median Max−median Min)]·100 IC50: concentration of compound that reduces a given response (ligand binding, enzyme response) by 50%. IC50 relative: concentration giving half the compound's maximum response.
(§3) For IC50 values shown in Table A, “A” means IC50<0.5 μM; “B” means IC50 ranging between 0.5 μM and 1.0 μM; “C” means IC50 ranging between 1 μM and 5 μM; “D” means IC50 ranging between 5 μM and 10 μM; “E” means IC50>10 μM.

[2] = target: T2, human full length PIK3KA H1047R mutant (p110α/p85α complex) (Homo sapiens, UniProt P42336, H1047R); assay: PI3K-alpha kinase (PIK3CA) biochemical activity, H1047R mutant, ADP-Glo; settings: PI3K-α (PIK3CA) biochemical, H1047R mutant
T2 construct: Recombinant, catalytically active human full length PIK3KA Wild-type and H1047R mutant were purchased as 1:1 complex; 6xHis (N); purchased EMD Millipore Sigma 14-792M
Text: as §1, §2, §3

[3] = PIP2diC8 lipid substrate (footnote 1)

T2 sequence (P42336 whole entry H1047R): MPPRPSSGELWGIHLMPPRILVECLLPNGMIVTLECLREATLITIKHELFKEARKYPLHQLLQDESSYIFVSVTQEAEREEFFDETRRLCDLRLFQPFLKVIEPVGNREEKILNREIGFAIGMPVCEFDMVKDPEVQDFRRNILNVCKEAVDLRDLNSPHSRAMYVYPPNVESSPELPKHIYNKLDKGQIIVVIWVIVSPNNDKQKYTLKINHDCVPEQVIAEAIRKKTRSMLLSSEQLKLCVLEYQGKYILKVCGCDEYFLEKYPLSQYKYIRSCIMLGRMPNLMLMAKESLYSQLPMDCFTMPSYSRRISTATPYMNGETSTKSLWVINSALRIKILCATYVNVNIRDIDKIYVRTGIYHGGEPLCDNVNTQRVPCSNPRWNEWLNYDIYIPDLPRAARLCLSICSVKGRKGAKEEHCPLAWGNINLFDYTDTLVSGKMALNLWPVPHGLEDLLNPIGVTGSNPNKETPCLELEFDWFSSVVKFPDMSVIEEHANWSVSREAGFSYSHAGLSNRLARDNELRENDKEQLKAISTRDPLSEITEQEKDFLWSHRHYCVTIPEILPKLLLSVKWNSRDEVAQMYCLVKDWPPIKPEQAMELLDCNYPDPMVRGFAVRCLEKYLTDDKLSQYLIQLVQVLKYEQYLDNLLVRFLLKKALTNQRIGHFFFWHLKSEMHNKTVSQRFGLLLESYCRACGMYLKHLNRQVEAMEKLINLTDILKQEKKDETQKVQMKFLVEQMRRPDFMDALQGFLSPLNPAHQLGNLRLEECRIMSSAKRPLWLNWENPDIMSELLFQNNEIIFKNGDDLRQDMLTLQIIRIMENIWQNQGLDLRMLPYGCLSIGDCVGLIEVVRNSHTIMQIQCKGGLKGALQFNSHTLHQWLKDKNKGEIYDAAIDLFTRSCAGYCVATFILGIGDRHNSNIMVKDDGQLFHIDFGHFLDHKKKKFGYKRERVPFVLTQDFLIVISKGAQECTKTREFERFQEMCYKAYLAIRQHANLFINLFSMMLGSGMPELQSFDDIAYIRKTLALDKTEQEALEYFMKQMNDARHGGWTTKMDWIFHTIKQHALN
T2 sequence (P27986 whole entry partner): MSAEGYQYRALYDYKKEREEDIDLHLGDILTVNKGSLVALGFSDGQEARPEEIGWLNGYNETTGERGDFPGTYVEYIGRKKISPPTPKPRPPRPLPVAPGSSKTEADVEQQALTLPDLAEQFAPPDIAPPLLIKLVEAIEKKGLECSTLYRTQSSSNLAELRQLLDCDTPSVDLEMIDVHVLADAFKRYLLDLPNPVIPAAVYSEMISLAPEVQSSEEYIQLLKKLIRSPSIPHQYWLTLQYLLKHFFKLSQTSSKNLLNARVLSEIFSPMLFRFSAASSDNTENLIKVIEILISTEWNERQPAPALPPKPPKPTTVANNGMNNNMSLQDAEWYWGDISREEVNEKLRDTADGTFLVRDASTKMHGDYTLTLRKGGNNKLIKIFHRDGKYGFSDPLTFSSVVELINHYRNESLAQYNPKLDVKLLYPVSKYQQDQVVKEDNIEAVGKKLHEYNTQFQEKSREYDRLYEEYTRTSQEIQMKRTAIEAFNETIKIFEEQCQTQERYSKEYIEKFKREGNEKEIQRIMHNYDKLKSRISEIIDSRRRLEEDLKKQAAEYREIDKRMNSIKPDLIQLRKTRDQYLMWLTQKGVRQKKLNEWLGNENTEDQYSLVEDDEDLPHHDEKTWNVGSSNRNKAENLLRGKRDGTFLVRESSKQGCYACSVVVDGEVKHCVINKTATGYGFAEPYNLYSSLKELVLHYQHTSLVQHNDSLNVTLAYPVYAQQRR

Row | Structure (SMILES) | IC50 ([1]; Soy PI lipid substrate) | IC50 ([2]; Soy PI lipid substrate) | IC50 [1, 3] | IC50 [2, 3]
1 | Cc1cc(C(C)Nc2ccccc2C(=O)O)c2oc(-c3ccc(S(C)(=O)=O)cc3)cc(=O)c2c1 (single isomer, unassigned; isomer 1) [Example 47, 2-[1-[6-Methyl-2-(4-methylsulfonylphenyl)-4-oxo-chromen-8-yl]ethylamino]benzoic acid, Isomer 1] | > 10 µM | > 10000 nM | – | –
2 | Cc1cc(C(C)Nc2ccccc2C(=O)O)c2oc(-c3ccc(N4CCCC4)cc3)cc(=O)c2c1 (single isomer, unassigned; isomer 1) [Example 54, 2-[1-[6-Methyl-4-oxo-2-(4-pyrrolidin-1-ylphenyl)chromen-8-yl]ethylamino]benzoic acid, Isomer 1] | > 10 µM | 500 to 1000 nM | – | –
3 | Cc1cc(C(C)Nc2ccccc2C(=O)O)c2oc(-c3ccccc3)c(C#N)c(=O)c2c1 (single isomer, unassigned; isomer 1) [Example 61, 2-[1-(3-Cyano-6-methyl-4-oxo-2-phenyl-chromen-8-yl)ethylamino]benzoic acid, Isomer 1] | > 10 µM | > 10000 nM | – | –
4 | Cc1cc(C(C)Nc2ccccc2C(=O)O)c2oc(-c3cccc(C(C)(C)C#N)c3)cc(=O)c2c1 (single isomer, unassigned; isomer 2) [Example 5, 2-[1-[2-[3-(1-Cyano-1-methyl-ethyl)phenyl]-6-methyl-4-oxo-chromen-8-yl]ethylamino]benzoic acid, Isomer 2] | > 10 µM | < 500 nM | – | –
5 | Cc1cc(C(C)Nc2ccccc2C(=O)O)c2oc(-c3ccc(S(C)(=O)=O)cc3)cc(=O)c2c1 (single isomer, unassigned; isomer 2) [Example 48, 2-[1-[6-Methyl-2-(4-methylsulfonylphenyl)-4-oxo-chromen-8-yl]ethylamino]benzoic acid, Isomer 2] | > 10 µM | < 500 nM | – | –
6 | CC(Nc1ccccc1C(=O)O)c1cc(C(F)(F)F)cc2c(=O)cc(-c3ccccc3)oc12 (single isomer, unassigned; isomer 2) [Example 87, 2-[1-[4-Oxo-2-phenyl-6-(trifluoromethyl)-chromen-8-yl]ethylamino]benzoic acid, Isomer 2] | 5 to 10 µM | < 500 nM | – | –
7 | Cc1cc(C(C)Nc2ccccc2C(=O)O)c2oc(-c3cccc(C(C)(C)C#N)c3)cc(=O)c2c1 (stereo not shown) [Example 3, 2-[1-[2-[3-(1-Cyano-1-methyl-ethyl)phenyl]-6-methyl-4-oxo-chromen-8-yl]ethylamino]benzoic acid 2,2,2-trifluoroacetic acid] | 5 to 10 µM | < 500 nM | – | –
8 | CC(Nc1ccccc1C(=O)O)c1c(F)c(F)cc2c(=O)cc(-c3ccccc3)oc12 (stereo not shown) [Example 6, 2-[1-(6,7-Difluoro-4-oxo-2-phenyl-chromen-8-yl)ethylamino]benzoic acid 2,2,2-trifluoroacetic acid] | – | – | 1 to 5 µM | < 500 nM
9 | Cc1cc(C(C)Nc2ccccc2C(=O)O)c2oc(-c3ccc(C4(C#N)CC4)cc3)cc(=O)c2c1 (stereo not shown) [Example 7, 2-[1-[2-[4-(1-Cyanocyclopropyl)-phenyl]-6-methyl-4-oxo-chromen-8-yl]ethylamino]benzoic acid] | – | – | 0.5 to 1 µM | < 500 nM
10 | Cc1cc(C(C)Nc2ccccc2C(=O)O)c2oc(-c3ccc(C(=O)N(C)C)cc3)cc(=O)c2c1 (stereo not shown) [Example 8, 2-[1-[2-[4-(Dimethylcarbamoyl)-phenyl]-6-methyl-4-oxo-chromen-8-yl]ethylamino]benzoic acid 2,2,2-trifluoroacetic acid] | > 10 µM | < 500 nM | – | –
11 | Cc1cc(C(C)Nc2ccccc2C(=O)O)c2oc(-c3ccc(S(C)(=O)=O)cc3)cc(=O)c2c1 (stereo not shown) [Example 9, 2-[1-[6-Methyl-2-(4-methylsulfonylphenyl)-4-oxo-chromen-8-yl]ethylamino]benzoic acid 2,2,2-trifluoroacetic acid] | > 10 µM | < 500 nM | – | –

Next, values leading:

Row | IC50 ([1]; Soy PI lipid substrate) | IC50 ([2]; Soy PI lipid substrate) | IC50 [1, 3] | IC50 [2, 3] | Structure (SMILES)
12 | 5 to 10 µM | < 500 nM | – | – | Cc1cc(C(C)Nc2ccccc2C(=O)O)c2oc(-c3ccc(C(=O)N(C)C)cc3)cc(=O)c2c1 (single isomer, unassigned; isomer 1) [Example 49, 2-[1-[2-[4-(Dimethylcarbamoyl)-phenyl]-6-methyl-4-oxo-chromen-8-yl]ethylamino]benzoic acid, Isomer 1]
13 | 5 to 10 µM | > 10000 nM | – | – | CC(Nc1ccccc1C(=O)O)c1cc(C(F)(F)F)cc2c(=O)cc(-c3ccccc3)oc12 (single isomer, unassigned; isomer 1) [Example 86, 2-[1-[4-Oxo-2-phenyl-6-(trifluoromethyl)-chromen-8-yl]ethylamino]benzoic acid, Isomer 1]
14 | < 0.5 µM | < 500 nM | – | – | Cc1cc(C(C)Nc2cccc(F)c2C(=O)O)c2oc(-c3ccccc3F)c(C)c(=O)c2c1 (single isomer, unassigned; isomer 1) [Example 103, 2-Fluoro-6-[1-[2-(2-fluorophenyl)-3,6-dimethyl-4-oxo-chromen-8-yl]ethylamino]benzoic acid, Isomer 1]
15 | 1 to 5 µM | < 500 nM | – | – | Cc1cc(C(C)Nc2cccc(F)c2C(=O)O)c2oc(-c3ccccc3F)cc(=O)c2c1 (single isomer, unassigned; isomer 1) [Example 107, 2-Fluoro-6-[1-[2-(2-fluorophenyl)-6-methyl-4-oxo-chromen-8-yl]ethylamino]benzoic acid, Isomer 1]
16 | 1 to 5 µM | < 500 nM | – | – | Cc1cc(C(C)Nc2ccccc2C(=O)O)c2oc(-c3ccc(C4(C#N)CC4)cc3)cc(=O)c2c1 (single isomer, unassigned; isomer 2) [Example 53, 2-[1-[2-[4-(1-Cyanocyclopropyl)-phenyl]-6-methyl-4-oxo-chromen-8-yl]ethylamino]benzoic acid, Isomer 2]
17 | 0.5 to 1 µM | < 500 nM | – | – | Cc1cc(C(C)Nc2ccc(Cl)nc2C(=O)O)c2oc(-c3ccccc3)c(I)c(=O)c2c1 (single isomer, unassigned; isomer 2) [Example 154, 6-Chloro-3-[1-(3-iodo-6-methyl-4-oxo-2-phenyl-chromen-8-yl)ethylamino]pyridine-2-carboxylic acid, Isomer 2]
18 | 1 to 5 µM | 1000 to 5000 nM | – | – | Cc1cc(C(C)Nc2ccc(Cl)nc2C(=O)O)c2oc(-c3ccccc3)c(I)c(=O)c2c1 (single isomer, unassigned; isomer i) [Example 153, 6-Chloro-3-[1-(3-iodo-6-methyl-4-oxo-2-phenyl-chromen-8-yl)ethylamino]pyridine-2-carboxylic acid, Isomer I]
19 | < 0.5 µM | < 500 nM | – | – | Cc1cc([C@@H](C)Nc2ccc(Cl)nc2C(=O)O)c2oc(-c3ccccc3)cc(=O)c2c1 [Example 2, 6-Chloro-3-[[(1R)-1-(6-methyl-4-oxo-2-phenyl-chromen-8-yl)ethyl]amino]pyridine-2-carboxylic acid]
20 | 1 to 5 µM | < 500 nM | – | – | Cc1cc(C(C)Nc2ccccc2C(=O)O)c2oc(-c3ccccc3)c(C#N)c(=O)c2c1 (stereo not shown) [Example 10, 2-[1-(3-Cyano-6-methyl-4-oxo-2-phenyl-chromen-8-yl)ethylamino]benzoic acid 2,2,2-trifluoroacetic acid]
